PMC8453901, “GLPG1205, a GPR84 Modulator: Safety, Pharmacokinetics, and Pharmacodynamics in Healthy Subjects” (Clinical Pharmacology in Drug Development, 2021)
Entries after “also recorded” stand apart in the source; their conditions may differ. Like-named read-outs stand apart in the source and are kept apart here.

Experiment: Study 1 MAD part: plasma and urine pharmacokinetics, once daily for 14 days
Format: in vivo, human
Conditions: for AUC / Cmax / Tmax / half-life: male, human, plasma, oral; for AUC: dosing interval 24 hours; for Tmax: median (minimum-maximum)
Description: GLPG1205 or matching placebo were administered as an oral nanosuspension in the morning in a fed condition as an outpatient. For both the single ascending doses (SADs) and multiple ascending doses (MADs) parts of the study, subjects attended a screening visit (21 to 2 days before first study drug administration) and a follow‐up visit (7 to 10 days after the last dose).
In the MAD part of study 1, 24 healthy male subjects in 3 cohorts (C, D, and E; n = 8 each) each received GLPG1205 or matching placebo once daily for 14 days. Cohorts C, D, and E received GLPG1205 50 mg once daily or matching placebo, GLPG1205 100 mg once daily or matching placebo, and GLPG1205 200 mg once daily or matching placebo, respectively. Within a cohort, subjects were randomized to receive GLPG1205 or matching placebo in a 3:1 ratio. An interval of at least 6 days was enforced between cohorts. Subjects were kept in‐house from the evening of day –1 until ≈26 hours after first dosing (morning of day 2), and from the evening of day 13 to the morning of day 15. Administration of the study drug was performed daily at the clinical pharmacology unit.
In the SAD part of study 1, blood samples (2 mL) for PK assessments were obtained before dosing and at multiple time points on the day of study drug administration (before dosing and 0.5, 1, 2, 4, 6, 8, and 12 hours after dosing) and at 24, 48, and 72 hours after dosing. The predose sample for the next dose level was also used in PK analysis (168 hours after dosing). […] In the MAD part of study 1, blood samples (2 mL) were obtained on days 1, 2, 4, 5, 6, 8, 10, 12, 14, 15, 16, 17, and 18 and at follow‐up (approximately 7 to 10 days after the last dose). These PK blood samples were taken after dosing (1, 2, 4, 6, 8, 12, and 24 hours) on day 1; before dosing on days 4, 6, 8, and 10; and after dosing (1, 2, 4, 6, 8, 12, 24, 72, and 96 hours) on day 14. The following additional PK blood samples were also taken: cohort C, before dosing on day 5; and cohorts D and E, before dosing on day 12. Urine samples were obtained from fractions collected over 6‐ or 12‐hour periods after dosing on days –1, 1, 2, 13, 14, and 15; samples obtained on days –1 and 13 were for cytochrome P450 (CYP) induction analysis only. In study 2, blood samples (2 mL) were obtained on days 1, 2, 5, 7, 10, 14, 15, 17, and 20 and at follow‐up (approximately 21 days after end of study medication administration). Blood samples were taken before dosing and at 1, 2, 4, 6, 8, 12, and 24 hours after drug administration on days 1 and 14 and before dosing on other sampling days.
Blood samples were immediately chilled (ice bath), and the plasma was separated by centrifugation (4°C for 10 minutes at ≈1500 g) within 30 minutes of blood collection.
GLPG1205 plasma concentrations were determined using a validated liquid chromatography with tandem mass spectrometry method. After a protein precipitation with methanol, a chromatographic separation was performed on a Kinetex C18 column (50×3.0 mm, 2.6 μm; Phenomenex, Torrance, California) set at 40°C by using a Nexera high‐performance liquid chromatography (HPLC) system (Shimadzu, Kyoto, Japan) or an Infinity HPLC system (Agilent Technologies, Diegem, Belgium) in isocratic elution mode. A QTRAP6500, QTRAP4000, or API4000 mass spectrometer (AB Sciex, Nieuwerkerk aan den Ijssel, The Netherlands) equipped with a TurboIonSpray probe operated in the multiple reaction monitoring in positive mode was used for quantification. The calibration curves in plasma were linear over the range of 1 to 1000 ng/mL with 1/x^2 as weighting factor. The limit of quantification of the assay in the plasma samples was set at 1 ng/mL.
GLPG1205 concentrations in urine fractions were determined by using a qualified liquid chromatography with tandem mass spectrometry method derived from the plasma method. […]

[1] = 50 mg, 50 mg once daily, day 1, mean (CV%)
[2] = 50 mg, 50 mg once daily, day 14, mean (CV%)
[3] = 100 mg, 100 mg once daily, day 1, mean (CV%)
[4] = 100 mg, 100 mg once daily, day 14, mean (CV%)
[5] = 200 mg, 200 mg once daily, day 1, mean (CV%)

## O=c1nc(OC[C@@H]2COCCO2)cc2n1CCc1cc(C#CC3CC3)ccc1-2 [GLPG1205, 9‐cyclopropylethynyl‐2‐((S)‐1‐[1,4]dioxan‐2‐ylmethoxy)‐6,7‐dihydropyrimido[6,1‐a]isoquinolin‐4‐one]
50 mg once daily, day 1, mean (CV%)
  Ae(Τ), amount excreted in urine over 24 hours: 0.0785 (22.9) % dose
50 mg once daily, day 14, mean (CV%), N = 5
  Ae(Τ), amount excreted in urine over 24 hours: 0.428 (22.0)^N = 5 % dose
100 mg once daily, day 1, mean (CV%), N = 4
  Ae(Τ), amount excreted in urine over 24 hours: 0.0746 (30.1)^N = 4 % dose
100 mg once daily, day 14, mean (CV%)
  Ae(Τ), amount excreted in urine over 24 hours: 0.480 (27.2) % dose
200 mg once daily, day 1, mean (CV%)
  Ae(Τ), amount excreted in urine over 24 hours: 0.123 (27.0) % dose
50 to 100 mg once daily
  dose-proportionality of steady-state exposure (Cmax and AUCΤ): increased in proportion with the dose; also recorded: increased proportionally with the dose
At steady state on day 14
  excretion of unchanged GLPG1205 in urine over 24 hours: < 0.48 % of the administered dose
[1]
  AUC: 7580 ng·h/mL
  Cmax: 469 ng/mL
50 mg, 50 mg once daily, day 1
  Tmax: 3 h
[2]
  AUC: 41300 ng·h/mL
  Cmax: 2050 ng/mL
50 mg, 50 mg once daily, day 14, mean (CV%), read-out: t1/2,λz (converted)
  half-life: 76.7 h
50 mg, 50 mg once daily, day 14
  Tmax: 4 h
[3]
  AUC: 14400 ng·h/mL
  Cmax: 875 ng/mL
100 mg, 100 mg once daily, day 1
  Tmax: 4 h
[4]
  AUC: 82700 ng·h/mL
  Cmax: 3910 ng/mL
100 mg, 100 mg once daily, day 14, mean (CV%), read-out: t1/2,λz (converted)
  half-life: 88.6 h
100 mg, 100 mg once daily, day 14
  Tmax: 4 h
[5]
  AUC: 42900 ng·h/mL
  Cmax: 2450 ng/mL
200 mg, 200 mg once daily, day 1
  Tmax: 3 h
200/150 mg once daily (150 mg as of day 8), day 14, n = 3, mean (CV%)
  Cmax: 8900 ng/mL
200/150 mg once daily, day 14, n = 3, mean (CV%)
  AUC: 195000 ng·h/mL
200/150 mg once daily, day 14, n = 3, mean (CV%), read-out: t1/2,λz (converted)
  half-life: 141 h
200/150 mg once daily, day 14, n = 3
  Tmax: 12 h
once-daily dosing for 14 days, read-out: t1/2,λz range
  half-life: 76.7 to 141 h
once-daily dosing for 14 days, irrespective of dose (by day 10)
  time to steady state in plasma concentrations: 9 dosing days
